Measurements: US20240132484A1, “BROAD SPECTRUM ANTIVIRAL COMPOUNDS TARGETING THE SKI COMPLEX” (priority 2020, published 2024)
Several values for one entry are separate records, joined by “and”; a condition that tells them apart may be missing. Equal values may be shown once. Read-outs that look alike come from different tables or passages of the source.

How the values were obtained:
SARS2 = type: cell-based, SARS-CoV-2; conditions: for Percentage Infection Relative to Appropriate DMSO Control: avg background subtraction

Cc1ccc(CN(CCN(C)C)Cc2cc(C#CCO)cs2)s1 [SILCS1]
Percentage Infection Relative to Appropriate DMSO Control (SARS2; 1 uM, Exp 1 (SMW454), single wells): 99.35% and 98.10% and 99.72%
Percentage Infection Relative to Appropriate DMSO Control (SARS2; 5 uM, Exp 1 (SMW454), single wells): 112.30% and 117.54% and 117.35%
Percentage Infection Relative to Appropriate DMSO Control (SARS2; 10 uM, Exp 1 (SMW454), single wells): 107.68% and 118.84% and 98.07%
Percentage Infection Relative to Appropriate DMSO Control (SARS2; 25 uM, Exp 1 (SMW454), single wells): 103.38% and 104.01% and 105.61%
Percentage Infection Relative to Appropriate DMSO Control (SARS2; 50 uM, Exp 1 (SMW454), single wells): 103.48% and 93.04% and 95.93%
Infection Data, Average, Mean (SARS2; Average of Exp 1-3, n 9, 1 uM): 122.42%
Infection Data, Average, Mean (SARS2; Average of Exp 1-3, n 9, 5 uM): 119.79%
Infection Data, Average, Mean (SARS2; Average of Exp 1-3, n 9, 10 uM): 100.52%
Infection Data, Average, Mean (SARS2; Average of Exp 1-3, n 9, 25 uM): 61.83%
Infection Data, Average, Mean (SARS2; Average of Exp 1-3, n 9, 50 uM): 43.32%
Percentage Infection Relative to Appropriate DMSO Control (SARS2; Exp 2 (SMW466), 1 uM): 148.68% and 144.39% and 143.85%
Percentage Infection Relative to Appropriate DMSO Control (SARS2; Exp 2 (SMW466), 5 uM): 114.43% and 126.13% and 128.85%
Percentage Infection Relative to Appropriate DMSO Control (SARS2; Exp 2 (SMW466), 10 uM): 102.74% and 102.52% and 110.68%
Percentage Infection Relative to Appropriate DMSO Control (SARS2; Exp 2 (SMW466), 25 uM): 28.51% and 36.47% and 30.25%
Percentage Infection Relative to Appropriate DMSO Control (SARS2; Exp 3 (SMW480), 1 uM): 128.15% and 110.09% and 129.44%
Percentage Infection Relative to Appropriate DMSO Control (SARS2; Exp 3 (SMW480), 5 uM): 127.64% and 114.03% and 119.89%
Percentage Infection Relative to Appropriate DMSO Control (SARS2; Exp 3 (SMW480), 10 uM): 73.36% and 110.69% and 80.10%
Percentage Infection Relative to Appropriate DMSO Control (SARS2; Exp 3 (SMW480), 25 uM): 55.94% and 38.83% and 53.44%
Percentage Infection Relative to Appropriate DMSO Control (SARS2; Exp 3 (SMW480), 50 uM): 27.26% and 20.30% and 23.61%
Percentage Inhibition Average 1 μM (SARS2; SARS2, 1 μM): −22.42%
Screening data (Relative infection to DMSO controls) Average 1 μM (SARS2; SARS2, 1 μM, 100=DMSO control): 122.42
Percentage Inhibition Average 5 μM (SARS2; SARS2, 5 μM): −19.79%
Screening data (Relative infection to DMSO controls) Average 5 μM (SARS2; SARS2, 5 μM, 100=DMSO control): 119.79
Percentage Inhibition Average 10 μM (SARS2; SARS2, 10 μM): −0.52%
Screening data (Relative infection to DMSO controls) Average 10 μM (SARS2; SARS2, 10 μM, 100=DMSO control): 100.52
Percentage Inhibition Average 25 μM (SARS2; SARS2, 25 μM): 38.17%
Screening data (Relative infection to DMSO controls) Average 25 μM (SARS2; SARS2, 25 μM, 100=DMSO control): 61.83
Percentage Inhibition Average 50 μM (SARS2; SARS2, 50 μM): 56.68%
Screening data (Relative infection to DMSO controls) Average 50 μM (SARS2; SARS2, 50 μM, 100=DMSO control): 43.32
Average (relative infection to DMSO over the 5 tested concentrations) (SARS2; SARS2, average over 1 to 50 uM, 100=DMSO control): 89.58
Relative cell count to DMSO controls, Average 1 μM (cells (nuclei count); 1 μM, toxicity data, 100=DMSO control): 98.82
Relative cell count to DMSO controls, Average 5 μM (cells (nuclei count); 5 μM, toxicity data, 100=DMSO control): 99.54
Relative cell count to DMSO controls, Average 10 μM (cells (nuclei count); 10 μM, toxicity data, 100=DMSO control): 108.52
Relative cell count to DMSO controls, Average 25 μM (cells (nuclei count); 25 μM, toxicity data, 100=DMSO control): 116.28
Relative cell count to DMSO controls, Average 50 μM (cells (nuclei count); 50 μM, toxicity data, 100=DMSO control): 84.14
Toxicity Data, Average, Mean (cells (nuclei count); Average of Exp 1-3, n 9, 1 uM): 98.82%
Toxicity Data, Average, Mean (cells (nuclei count); Average of Exp 1-3, n 9, 5 uM): 99.54%
Toxicity Data, Average, Mean (cells (nuclei count); Average of Exp 1-3, n 9, 10 uM): 108.52%
Toxicity Data, Average, Mean (cells (nuclei count); Average of Exp 1-3, n 9, 25 uM): 116.28%
Toxicity Data, Average, Mean (cells (nuclei count); Average of Exp 1-3, n 9, 50 uM): 84.14%
Toxicity Data, nuclei count relative to DMSO controls (cells (nuclei count); Exp 1 (SMW454), 1 uM): 105.2% and 108.8% and 106.3%
Toxicity Data, nuclei count relative to DMSO controls (cells (nuclei count); Exp 1 (SMW454), 5 uM): 102.9% and 104.5% and 102.2%
Toxicity Data, nuclei count relative to DMSO controls (cells (nuclei count); Exp 1 (SMW454), 10 uM): 107.4% and 106.9% and 105.6%
Toxicity Data, nuclei count relative to DMSO controls (cells (nuclei count); Exp 1 (SMW454), 25 uM): 94.7% and 94.9% and 95.9%
Toxicity Data, nuclei count relative to DMSO controls (cells (nuclei count); Exp 1 (SMW454), 50 uM): 83.8% and 87.1% and 84.9%
Toxicity Data, nuclei count relative to DMSO controls (cells (nuclei count); Exp 2 (SMW466), 1 uM): 93.5% and 94.5% and 96.6%
Toxicity Data, nuclei count relative to DMSO controls (cells (nuclei count); Exp 2 (SMW466), 5 uM): 107.1% and 94.1% and 106.7%
Toxicity Data, nuclei count relative to DMSO controls (cells (nuclei count); Exp 2 (SMW466), 10 uM): 107.3% and 102.2% and 104.0%
Toxicity Data, nuclei count relative to DMSO controls (cells (nuclei count); Exp 2 (SMW466), 25 uM): 130.6% and 124.7% and 133.0%
Toxicity Data, nuclei count relative to DMSO controls (cells (nuclei count); Exp 2 (SMW466), 50 uM): 88.5% and 77.1% and 78.5%
Toxicity Data, nuclei count relative to DMSO controls (cells (nuclei count); Exp 3 (SMW480), 1 uM): 89.7% and 102.3% and 92.4%
Toxicity Data, nuclei count relative to DMSO controls (cells (nuclei count); Exp 3 (SMW480), 5 uM): 88.1% and 95.7% and 94.5%
Toxicity Data, nuclei count relative to DMSO controls (cells (nuclei count); Exp 3 (SMW480), 10 uM): 124.6% and 98.4% and 120.2%
Toxicity Data, nuclei count relative to DMSO controls (cells (nuclei count); Exp 3 (SMW480), 25 uM): 120.8% and 130.3% and 121.5%
Toxicity Data, nuclei count relative to DMSO controls (cells (nuclei count); Exp 3 (SMW480), 50 uM): 72.1% and 98.8% and 86.4%
Relative cell count to DMSO controls, Average (for correlation analysis) (cells (nuclei count); average value over the 5 tested concentrations (1 to 50 uM)): 101.46
